Test [1] relates to CFA induced hypersensitivity in rat. Nature of the test: CFA induced hypersensitivity in rat assessed using weight bearing method. The following applies: 10 mg/kg, 24 hours post CFA, 1, 2 and 4 hours post treatment. The class given is in vivo. The text has this:
Intraplantar injection of Complete Freunds adjuvant (CFA) causes an inflammatory reaction which induces hypersensitivity and oedema, and mimics some aspects of clinical inflammatory pain. These effects can be investigated using equipment to measure weight bearing and plethysmometer.
Naive rats distribute their body weight equally between the two hind paws. However, when the injected (left) hind paw is inflamed and/or painful, the weight is re-distributed so that less weight is put on the affected paw (decrease in weight bearing on injured paw). Weight bearing through each hind limb was measured using a rat incapacitance tester (Linton Instruments, UK).
Rats were placed in the incapacitance tester with the hind paws on separate sensors and the average force exerted by both hind limbs was recorded over 4 seconds.
Base line weight bearing and paw volume readings were taken and hypersensitivity was induced via injection of CFA (Baseline weight bearing and paw volume recordings were taken prior to induction of insult. Inflammatory hypersensitivity was induced by intraplantar injection of CFA (100 μL of 1 mg/mL solution) intraplantar to the rats left hind paw.
Animals (Male, Sprague Dawley Rats (Charles River, UK), 212-260 g) were ranked and randomised to treatment groups according to the weight bearing CFA window in a Latin square design. […]

Test [2] concerns MIA induced hyperalgesia in the rat. Nature of the test: MIA induced hyperalgesia in the rat, in vivo chronic pain model (weight bearing). The following applies: 10 mg/kg p.o. daily day 3 to day 16, vs vehicle. The text has this:
Intra-articular administration of Monosodium Iodoacetate (MIA) in the ipsilateral knee of Sprague Dawley rats leads to development of a robust and long-lasting hyperalgesia and allodynia associated initially with an inflammatory response.
Naive rats distribute their body weight equally between the two hind paws. However, when the injected (left) hind knee is inflamed and/or painful, the weight is re-distributed so that less weight is put on the affected limb (decrease in weight bearing on injured limb). Weight bearing through each hind limb is measured using a rat incapacitance tester (Linton Instruments, UK).
Osteoarthritis (OA) in rats ((Sprague Dawley, male, groups of 10) was induced via injection of MIA solution (Sigma, 12512), 25 μL of 80 mg/mL, (2 mg) into the knee joint of the left hind leg. Weight bearing was assessed on Days 3, 5, 7, 9, 12 & 16, following injection of MIA, for development of chronic pain. At Day 3 weight bearing measurements were taken and animals were ranked and randomised to treatment groups according to their MIA window in a Latin square design. […]
Weight bearing (g) readings were taken for both right and left hind paws and the difference calculated. Data are expressed as % ratio ipsilateral/contralateral ((WB left/WB right)*100) (mean±s.e.m.)
Calculation: Ipsilateral reading/contralateral reading x 100. […]

In test [3] the test system is CDAHFD diet-induced NASH in C57/BL6 mice. Nature of the test: Diet-induced (CDAHFD) mouse model of non-alcoholic steatohepatitis (NASH). The class given is in vivo. The following applies: mouse liver. The text has this:
This model uses a choline-deficient, L-amino acid-defined, high-fat diet (CDAHFD) consisting of 60 kcal % fat and 0.1% methionine to induce NASH.
C57/BL6 mice (Charles River) are divided into groups as set out below, the mice are 8 weeks (>20 grs) at the initiation of the induction phase.
• CDAHFD; Research Diets Inc., Ref. No. A06071302 • Control diet: normal diet (VRF 1, P), Special Diets Services
In order to induce a non-alcoholic steatohepatitis (NASH), animals will be fed with choline-deficient, L-amino acid-defined, high-fat diet (CDAHFD).
Mice were randomly assigned to a treatment group and treated according to schedule presented in the Table above until the evaluation phase.
Steady state PK sampling—Blood will be collected in K2-EDTA tubes to generate plasma. All blood samples will be processed for plasma by centrifugation (5,000 rpm for 10 minutes at 4° C.) within 30 minutes of collection. Plasma from each blood sample will be quickly frozen in liquid nitrogen and stored in a freezer maintained at −80° C. until analysis.
Final blood sample—Blood will be collected in tubes for serum preparation containing protease inhibitors. All blood samples will be processed by centrifugation (3,500 rpm for 15 minutes at 4° C.). Aliquots of obtained serum samples will be stored frozen at −80° C. until further analysis.
Tissue samples: The liver is harvested and portions of the left lateral lobe are stored for RNA gene expression analysis, TG assay, sectioned for OH proline measurement, and the rest placed in 10% formalin for histopathological evaluation. Histopathological evaluation includes sections stained with Sirius red to evaluate extent of fibrosis, and sections stained with F4/80 to assess macrophage accumulation.
A panel of 6 fibrosis genes (Col1A1, Timp1, Pai1, CTGF, TGFβ and Acta2), inflammation genes (TNFα, IL10 and CCL2) and 2 house keeping genes are used for gene expression analysis.

Molecules are shown by their SMILES. Entries after “also recorded” stand apart in the source; their conditions may differ.

Take `Cc1c[nH]c2ncnc(N3CCC(NC(=O)c4cc(N)ncc4F)CC3)c12` [Compound 1, 2-amino-5-fluoro-N-[1-(5-methyl-7H-pyrrolo[2,3-d]pyrimidin-4-yl)-4-piperidyl]pyridine-4-carboxamide]: in test [1], the “hypersensitivity response (weight bearing)” value is given as “significantly inhibited”. The “reversal of hypersensitivity (weight bearing)” value in test [2] is “significant and marked reversal; also recorded: significant reversal when compared to vehicle at each time point”. In addition, the F4/80 quantification result in test [3] (day 73, 15 mg/kg/BID) is listed as “significant effect”. For the same compound, the “Sirius red fibrosis quantification” value in test [3] (day 73, 15 mg/kg/QD and 15 mg/kg/BID) was “significant effect”. Moreover, in test [3] (day 73, at least the highest doses tested (5 mg/kg/QD, 15 mg/kg/QD, 15 mg/kg/BID p.o.), vs CDAHFD diet+vehicle), the “expression levels of Pai1 (fibrosis gene panel)” value was “significant effect”. Further, the “expression levels of TGF (fibrosis gene panel)” value in test [3] (day 73, at least the highest doses tested, vs CDAHFD diet+vehicle) was “significant effect”.
